Laboratory results published in patent US9062041B2 (Bayer Intellectual Property GmbH, priority 2011, dated 2015).

Assays:
Assay type in all cases: cell-based
[1] = molecular target: EP2 subtype of the human PGE2 receptor (Homo sapiens, UniProt P43116); test: cAMP antagonism test on the human EP2 receptor (HTRF cAMP detection); settings: hEP2 receptor, read-out: Antagonism hEP2 IC50
Source text: 1. Detection of Antagonism to the Human Prostaglandin E2 (Subtype EP2) Receptor Signal
(§1) The binding of PGE2 to the EP2 subtype of the human PGE2 receptor induces the activation of membrane-located adenylate cyclases and leads to the formation of cAMP. In the presence of the phosphodiesterase inhibitor IBMX, the cAMP accumulated owing to this stimulation and released by cell lysis is used in a competitive detection method. In this test, the cAMP present in the lysate competes with a fluorescence-labelled cAMP (cAMP-d2) for binding to an Eu cryptate-labelled anti-cAMP antibody.
(§2) In the absence of cellular cAMP, a maximal signal is produced, which is attributable to the binding of this cAMP-d2 molecule to the antibody. After excitation of the […] at 337 nm, there is a fluorescence resonance energy transfer (FRET) to the Eu cryptate molecules of the anti-cAMP antibody (labelled therewith), followed by a long-lasting emission signal at 665 nm (and at […]). Both signals are measured in a suitable measurement instrument with a time delay, i.e. after decay of the background fluorescence. Any increase in the low FRET signal caused by prostaglandin E2 administration (measured as well ratio change=emission665 nm/emission620 nm*10000) indicates the action of antagonists.
1.2.1. Test for Antagonism (Data Per Well of a 384-Well Plate):
(§3) To a test plate with the substance solutions already added (0.05 μl; 100% DMSO, concentration range from 0.8 nM-16.5 μM) were added 4 μl of a cAMP-d2/cell suspension (625000 cells/ml). After a 20-minute preincubation at room temperature (RT), 2 μl of a 3×PGE2 solution (1.5 nM, in PBS-IBMX) were added and incubated in the presence of the agonist for a further 60 mins at RT (volume: ˜6 μl). Next the reaction was stopped by addition of 2 μl of lysis buffer and incubated for a further 20 mins at RT before the actual measurement (volume: ˜8 μl).

[2] = molecular target: EP4 subtype of the human PGE2 receptor (Homo sapiens, UniProt P35408); test: cAMP antagonism test on the human EP4 receptor (HTRF cAMP detection); settings: selectivity towards hEP4, IC50 measured by cAMP antagonism test
EP4 subtype of the human PGE2 receptor, sequence (P35408 whole entry): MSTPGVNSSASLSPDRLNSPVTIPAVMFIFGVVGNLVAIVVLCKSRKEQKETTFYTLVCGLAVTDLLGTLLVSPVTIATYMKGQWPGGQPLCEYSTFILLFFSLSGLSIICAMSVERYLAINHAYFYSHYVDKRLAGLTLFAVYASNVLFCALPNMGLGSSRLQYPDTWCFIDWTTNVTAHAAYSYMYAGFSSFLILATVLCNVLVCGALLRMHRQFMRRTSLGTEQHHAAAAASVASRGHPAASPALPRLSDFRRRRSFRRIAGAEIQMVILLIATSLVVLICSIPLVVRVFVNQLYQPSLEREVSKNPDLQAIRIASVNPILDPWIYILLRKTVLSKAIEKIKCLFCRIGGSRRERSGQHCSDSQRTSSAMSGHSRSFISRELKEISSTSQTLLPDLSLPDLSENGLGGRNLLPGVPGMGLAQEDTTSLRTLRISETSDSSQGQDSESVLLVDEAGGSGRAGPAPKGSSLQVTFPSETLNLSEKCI
Source text: 2. Detection of Antagonism to the Human Prostaglandin E2 (Subtype EP4) Receptor Signal
as §1, with “EP4” for “EP2”
as §2, with “cAMP” for “cAMP,”
2.2.1. Test for Antagonism (Data Per Well of a 384-Well Plate):
as §3, with “(312500” for “(625000”, “(0.3” for “(1.5”

human PGD receptor = molecular target: T1, human PGD receptor (Homo sapiens, UniProt Q13258); test: cAMP antagonism test on the human prostaglandin D receptor (HTRF cAMP detection); settings: selectivity towards hDP, IC50 measured by cAMP antagonism test
T1 sequence (Q13258 1-359): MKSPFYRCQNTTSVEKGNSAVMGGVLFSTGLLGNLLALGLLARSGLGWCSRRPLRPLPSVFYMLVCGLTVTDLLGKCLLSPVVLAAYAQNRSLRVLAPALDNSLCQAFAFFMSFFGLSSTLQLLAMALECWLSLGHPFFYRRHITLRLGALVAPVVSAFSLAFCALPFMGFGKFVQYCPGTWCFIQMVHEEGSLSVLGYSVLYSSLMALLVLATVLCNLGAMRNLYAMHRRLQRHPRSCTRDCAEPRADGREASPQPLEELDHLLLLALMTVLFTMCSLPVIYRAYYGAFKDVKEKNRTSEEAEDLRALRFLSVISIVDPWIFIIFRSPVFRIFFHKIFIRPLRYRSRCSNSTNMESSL
Source text: 3. Detection of Antagonism to the Human Prostaglandin D Receptor Signal
as §1, with “of prostaglandin D2” for “of PGE2”, “the” for “the EP2 subtype of the”, “human PGD” for “human PGE2”
as §2
3.2.1. Test for Antagonism (Data Per Well of a 384-Well Plate):
as §3, with “3×PGD2” for “3×PGE2”, “(6” for “(1.5”, “30” for “60”

EP2 subtype of the human PGE2 receptor, sequence (P43116 whole entry): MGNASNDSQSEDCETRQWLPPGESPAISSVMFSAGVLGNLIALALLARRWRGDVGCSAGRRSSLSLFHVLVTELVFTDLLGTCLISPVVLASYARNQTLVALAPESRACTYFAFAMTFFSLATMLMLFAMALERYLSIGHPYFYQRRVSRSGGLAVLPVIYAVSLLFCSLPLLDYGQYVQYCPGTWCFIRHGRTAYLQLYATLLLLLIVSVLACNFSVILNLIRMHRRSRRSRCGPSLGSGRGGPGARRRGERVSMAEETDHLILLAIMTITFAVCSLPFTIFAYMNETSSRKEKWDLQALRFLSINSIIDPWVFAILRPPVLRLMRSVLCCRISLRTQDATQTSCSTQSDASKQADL

COCCNC(=O)c1ccc2nn(CC3CCN(C(=O)c4ccc(Oc5ccc(C(F)(F)F)nc5)cc4)CC3)cc2c1C [Example 349, N-(2-methoxyethyl)-4-methyl-2-{[1-(4-{[6-(trifluoromethyl)pyridin-3-yl]oxy}-benzoyl)piperidin-4-yl]methyl}-2H-indazol-5-carboxamide]
IC50 [1]: 4.82 nM
Selectivity hEP2/hEP4 [2]: xxx (xxx > 100)
Selectivity hEP2/hDP (human PGD receptor): xxx (xxx > 100)

Cc1c(C(=O)NCCOC(C)C)ccc2nn(CC3CCN(C(=O)c4ccc(C5CC5)cc4)CC3)cc12 [Example 101, 2-{[1-(4-cyclopropyl-benzoyl)piperidin-4-yl]methyl}-N-(2-isopropoxyethyl)-4-methyl-2H-indazol-5-carboxamide]
IC50 [1]: 6.58 nM
Selectivity hEP2/hEP4 [2]: xxx (xxx > 100)
Selectivity hEP2/hDP (human PGD receptor): xxx (xxx > 100)

Cc1c(C(=O)NCC(C)(C)C)ccc2nn(CC3CCN(C(=O)c4ccc(Cl)cc4)CC3)cc12 [Example 251, 2-{[1-(4-chlorobenzoyl)piperidin-4-yl]methyl}-N-(2,2-dimethylpropyl)-4-methyl-2H-indazol-5-carboxamide]
IC50 [1]: 3810 nM
Selectivity hEP2/hEP4 [2]: x (x: 1-10)
Selectivity hEP2/hDP (human PGD receptor): x (x: 1-10)

COCCNC(=O)c1ccc2nn(CC3CCN(C(=O)c4ccc(-c5ccc(C(C)(C)O)cc5)cc4)CC3)cc2c1C [Example 388, 2-[(1-{[4′-(1-hydroxy-1-methylethyl)biphenyl-4-yl]carbonyl}piperidin-4-yl)-methyl]-N-(2-methoxyethyl)-4-methyl-2H-indazol-5-carboxamide]
IC50 [1]: 20.5 nM
Selectivity hEP2/hEP4 [2]: xxx (xxx > 100)
Selectivity hEP2/hDP (human PGD receptor): xxx (xxx > 100)

Cc1c(C(=O)NCCS(C)(=O)=O)ccc2nn(CC3CCN(C(=O)c4ccc(Br)cc4)CC3)cc12 [Example 395, 2-{[1-(4-bromobenzoyl)piperidin-4-yl]methyl}-N-(2-mesylethyl)-4-methyl-2H-indazol-5-carboxamide]
IC50 [1]: 30.4 nM
Selectivity hEP2/hEP4 [2]: xxx (xxx > 100)
Selectivity hEP2/hDP (human PGD receptor): xxx (xxx > 100)

Cc1c(C(=O)NCC#N)ccc2nn(CC3CCN(C(=O)c4ccc(Cl)cc4)CC3)cc12 [Example 401, 2-{[1-(4-chlorobenzoyl)piperidin-4-yl]methyl}-N-(cyanomethyl)-4-methyl-2H-indazol-5-carboxamide]
IC50 [1]: 155 nM
Selectivity hEP2/hEP4 [2]: xxx (xxx > 100)
Selectivity hEP2/hDP (human PGD receptor): xxx (xxx > 100)

Cc1ccc(Oc2ccc(C(=O)N3CCC(Cn4cc5c(C)c(C(=O)NCC(F)(F)F)ccc5n4)CC3)cc2)cc1 [Example 285, 4-methyl-2-({1-[4-(4-methylphenoxy)benzoyl]piperidin-4-yl}methyl)-N-(2,2,2-trifluoroethyl)-2H-indazol-5-carboxamide]
IC50 [1]: 100 nM
Selectivity hEP2/hEP4 [2]: xxx (xxx > 100)
Selectivity hEP2/hDP (human PGD receptor): xxx (xxx > 100)

COCCNC(=O)c1ccc2nn(CC3CCN(C(=O)c4ccc(-n5cncn5)cc4)CC3)cc2c1C [Example 39, N-(2-methoxyethyl)-4-methyl-2-({1-[4-(1H-1,2,4-triazol-1-yl)benzoyl]piperidin-4-yl}methyl)-2H-indazol-5-carboxamide]
IC50 [1]: 113 nM
Selectivity hEP2/hEP4 [2]: xxx (xxx > 100)
Selectivity hEP2/hDP (human PGD receptor): xxx (xxx > 100)

Cc1c(C(=O)NCC(F)(F)F)ccc2nn(CC3CCN(C(=O)c4ccc(Oc5ccc(C#N)cc5)cc4)CC3)cc12 [Example 306, 2-({1-[4-(4-cyanophenoxy)benzoyl]piperidin-4-yl}methyl)-4-methyl-N-(2,2,2-trifluoroethyl)-2H-indazol-5-carboxamide]
IC50 [1]: 76.6 nM
Selectivity hEP2/hEP4 [2]: xxx (xxx > 100)
Selectivity hEP2/hDP (human PGD receptor): xxx (xxx > 100)

Cc1cc2nn(CC3CCN(C(=O)c4ccc(Cl)cc4)CC3)cc2cc1C(=O)NCCN1CCOCC1 [Example 74, 2-{[1-(4-chlorobenzoyl)piperidin-4-yl]methyl}-6-methyl-N-(2-morpholinoethyl)-2H-indazol-5-carboxamide]
IC50 [1]: 95.4 nM
Selectivity hEP2/hEP4 [2]: xxx (xxx > 100)
Selectivity hEP2/hDP (human PGD receptor): xxx (xxx > 100)

COCCNC(=O)c1ccc2nn(CC3CCN(C(=O)c4ccc(-c5ccc(F)cc5C)cc4)CC3)cc2c1C [Example 376, 2-({1-[(4′-fluoro-2′-methylbiphenyl-4-yl)carbonyl]piperidin-4-yl}methyl)-N-(2-methoxyethyl)-4-methyl-2H-indazol-5-carboxamide]
IC50 [1]: 3.59 nM
Selectivity hEP2/hEP4 [2]: xxx (xxx > 100)
Selectivity hEP2/hDP (human PGD receptor): xxx (xxx > 100)

COCCNC(=O)c1ccc2nn(CC3CCN(C(=O)c4ccc(OC(F)F)cc4)CC3)cc2c1C [Example 365, 2-({1-[4-(difluoromethoxy)benzoyl]piperidin-4-yl}methyl)-N-(2-methoxyethyl)-4-methyl-2H-indazol-5-carboxamide]
IC50 [1]: 5.3 nM
Selectivity hEP2/hEP4 [2]: xxx (xxx > 100)
Selectivity hEP2/hDP (human PGD receptor): xxx (xxx > 100)

Cc1c(C(=O)NCCOCC2CC2)ccc2nn(CC3CN(C(=O)c4ccc(Oc5ccc(F)cc5)cc4)C3)cc12 [Example 150, N-[2-(cyclopropylmethoxy)ethyl]-2-({1-[4-(4-fluorophenoxy)benzoyl]azetidin-3-yl}methyl)-4-methyl-2H-indazol-5-carboxamide]
IC50 [1]: 12.8 nM
Selectivity hEP2/hEP4 [2]: xxx (xxx > 100)
Selectivity hEP2/hDP (human PGD receptor): xxx (xxx > 100)

COC(C)CNC(=O)c1ccc2nn(CC3CN(C(=O)c4ccc(Cl)cc4)C3)cc2c1C (racemic) [Example 138, (+/−)-2-{[1-(4-chlorobenzoyl)azetidin-3-yl]methyl}-N-(2-methoxypropyl)-4-methyl-2H-indazol-5-carboxamide]
IC50 [1]: 160 nM
Selectivity hEP2/hEP4 [2]: xxx (xxx > 100)
Selectivity hEP2/hDP (human PGD receptor): xxx (xxx > 100)
